Laboratory results reported in US20160274108A1, “DIAGNOSTIC METHODS FOR PAR4 ANTAGONIST THERAPY” (BRISTOL-MYERS SQUIBB COMPANY, priority 2013, published 2016).

Experiments:
[1] = target: T1, protease-activated receptor type 4 (PAR4) (Homo sapiens, UniProt Q96RI0); details: abstract of Lee et al., J. Med. Chem., 44(22):3746-3749 (2001); cited from earlier work
T1 sequence (Q96RI0 18-385): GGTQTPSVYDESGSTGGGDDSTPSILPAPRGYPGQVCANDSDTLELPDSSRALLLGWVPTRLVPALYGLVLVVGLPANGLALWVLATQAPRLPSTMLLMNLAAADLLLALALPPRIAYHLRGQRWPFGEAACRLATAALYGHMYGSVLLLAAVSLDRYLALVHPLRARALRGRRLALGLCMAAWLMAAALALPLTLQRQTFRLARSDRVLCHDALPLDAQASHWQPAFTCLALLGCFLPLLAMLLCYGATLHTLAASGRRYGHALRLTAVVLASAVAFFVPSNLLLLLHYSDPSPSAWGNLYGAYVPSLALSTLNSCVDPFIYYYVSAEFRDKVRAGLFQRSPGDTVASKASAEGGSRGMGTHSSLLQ

platelets [2] = assay: Platelet activation by whole blood flow cytometry: fibrinogen binding; format: cell-based, human; details: PAR1 1 μM final, 501 healthy subjects
Protocol: (§1) PAR1 and PAR4 agonists were supplied as freeze dried peptides and reconstituted with HEPES buffered saline [HBS, 0.14M NaCl, 5 mM KCl, 1 mM MgSO4, 10 mM HEPES (sodium salt), pH 7.4] to 1 mM concentrations prior to storing in single use aliquots at −80° C. Immediately prior to use PAR1 was thawed and diluted in HBS to 10 μM as a working concentration to give a final assay concentration of 1 μM. Similarly PAR4 was diluted to 100 μM working concentration to give a final assay concentration of 10 μM.
(§2) The antibodies used for flow cytometry were: rabbit FITC-anti-fibrinogen (Dako Ltd, Ely, UK), PE-anti-CD62P and a relevant PE-isotype control (Bristol Institute for Transfusion Science, Bristol, UK). HBS was used for all dilutions.
(§3) Blood was processed within 15 minutes of venesection, with 5 μL of citrated whole blood containing aspirin (100 μM) and hirudin (10 U/mL) being added to 45 μL of HBS containing apyrase (4 U/mL), either FITC-anti-fibrinogen or PE anti-CD62P, and either PAR1 (1 μM final concentration) or PAR4 (10 μM final concentration). […] Platelets were identified by light scatter and results were recorded as the percentage of platelets positive for the relevant activation marker. […]

platelets [3] = assay: Platelet activation by whole blood flow cytometry: P-selectin (CD62P) expression; format: cell-based, human; details: PAR1 1 μM final, 501 healthy subjects
Protocol: as §1, §2, §3

Row | Compound | inhibition of PAR4-dependent platelet activation [1] | fibrinogen binding, % positive platelets, median (platelets [2]) [%] | P-selectin expression, % positive platelets, median (platelets [3]) [%]
1 | CCOC(=O)c1ccc(-c2nn(Cc3ccccc3)c3ccccc23)cc1 | selective and potent inhibitor | – | –
2 | PAR1: PAR1 agonist, freeze dried peptide supplied by Bristol-Myers Squibb; Example 2 control is Compound A, SFFLRR (SEQ ID NO: 39) | – | 19.7 | 86.8
